We go through four compounds from ChEMBL document CHEMBL4610062, “Cytotoxic and non-cytotoxic cardiac glycosides isolated from the combined flowers, leaves, and twigs of Streblus asper” (Bioorg Med Chem, 2020).

One experiment concerns OVCAR-3. In words: Cytotoxicity against human OVCAR3 cells assessed as inhibition of cell viability incubated for 72 hrs by MTS assay. Type of experiment: functional, cell-based. The settings on record: OVCAR-3, 72 h.
The next experiment concerns HT-29. As to the kind of experiment: Cytotoxicity against human HT-29 cells assessed as inhibition of cell viability incubated for 72 hrs by MTS assay. Type of experiment: functional, cell-based. Conditions: HT-29, 72 h.
Experiment [1] in a line: Cytotoxicity against human MDA-MB-435 cells assessed as inhibition of cell viability incubated for 72 hrs by MTS assay.
Experiment [2] can be described thus: Inhibition of Sodium/potassium-transporting ATPase in porcine cerebral cortex using ATP as substrate incubated for 15 mins by ADP-Glo Max Assay. Further details: species or system Sus scrofa.

Regarding `CO[C@H]1[C@H](O[C@H]2CC[C@]3(C=O)[C@H]4CC[C@]5(C)[C@@H]6CC[C@]5(O[C@H]5OC(=O)C[C@H]56)[C@@H]4CC[C@]3(O)C2)O[C@H](C)[C@H](O)[C@@H]1OC`, the IC50 (in the experiment with OVCAR-3; in the experiment with HT-29; in experiment [1]) was more than 20 µM throughout.
For the compound `CC(=O)O[C@H]1C(=O)[C@@]2(C)[C@H]([C@H](OC(=O)c3ccccc3)[C@]3(O)C[C@H](OC(=O)[C@H](O)[C@@H](NC(=O)c4ccccc4)c4ccccc4)C(C)=C1C3(C)C)[C@]1(OC(C)=O)CO[C@@H]1C[C@@H]2O` [PACLITAXEL], the IC50 in experiment [1] is 0.0015 µM.
Consider `C[C@H]1O[C@@H](O[C@H]2[C@@H](O)C[C@H](O[C@H]3[C@@H](O)C[C@H](O[C@H]4CC[C@@]5(C)[C@H](CC[C@@H]6[C@@H]5CC[C@]5(C)[C@@H](C7=CC(=O)OC7)CC[C@]65O)C4)O[C@@H]3C)O[C@@H]2C)C[C@H](O)[C@@H]1O` [DIGITOXIN], for which, in experiment [2], the IC50 is 0.127 µM.
On to `CO[C@H]1[C@H](O[C@H]2CC[C@]3(C=O)[C@H]4CC[C@]5(C)[C@](O)(C6=CC(=O)OC6)CC[C@]5(O)[C@@H]4CC[C@]3(O)C2)O[C@H](C)[C@H](O)[C@@H]1OC`, for which the IC50 in the experiment with OVCAR-3 is more than 20 µM; in the experiment with HT-29, more than 20 µM; in experiment [2], 232 µM; in experiment [1], more than 20 µM.
